Test results as given in US11197871B2, “Methods and materials for treating calcific aortic valve stenosis” (Mayo Foundation for Medical Education and Research, priority 2012, dated 2021).
“Also recorded” adds a separate entry of the source.

Tests used:
[1] = system: aortic valve interstitial cells; assay: BMP2-treated aortic valve interstitial cells with or without Ataciguat for 24 hours (pVASP239, Sp7); assay type: cell-based; conditions: in vitro
Method: Overexpression of DDAH1 reduces endogenous inhibitors of NOS, increases NO production, and increases sGC signaling, ultimately resulting in slower progression of CAVS.
To determine whether induction of sGC signaling reduced osteogenic signaling in vitro, aortic valve interstitial cells were treated with BMP2 in the presence or absence of Ataciguat (HMR1766, 5-Chloro-2-[[(5-chloro-2-thienyl)sulfonyl]amino]-N-[4-(4-morpholinylsulfonyl)phenyl]benzamide) for 24 hours.

[2] = system: aortic valve interstitial cells; assay: Western blotting of BMP, TGFβ and sGC signaling in valve interstitial cells treated with BMP2, TGFβ1 or vehicle, with or without Ataciguat, for 18 hours; assay type: cell-based, human and mouse; conditions: Ataciguat 1 μmol, 37° C.
Method: FIG. 4 is a graph plotting p-VASP^239 levels detected in aortic valve interstitial cells treated with BMP2 (100 ng/mL), TGFβ1 (10 ng/mL), or neither (control; CTRL) in the presence or absence of Ataciguat (1 μmol) for 18 hours at 37° C.
FIG. 5 is a graph plotting p-Smad1/5/8 levels detected in aortic valve interstitial cells treated with BMP2 (100 ng/mL), TGFβ1 (10 ng/mL), or neither (control; CTRL) in the presence or absence of Ataciguat (1 μmol) for 18 hours at 37° C.
FIG. 6 is a graph plotting Sp7 levels detected in aortic valve interstitial cells treated with BMP2 […], or neither (control; CTRL) in the presence or absence of Ataciguat (1 μmol) for 18 hours at 37° C.
FIG. 7 is a graph plotting p-Smad2 levels detected in aortic valve interstitial cells treated with BMP2 […], or neither (control; CTRL) in the presence or absence of Ataciguat (1 μmol) for 18 hours at 37° C.
Additional experiments were performed to confirm that Ataciguat activates sGC signaling, attenuates BMP2 signaling, attenuates BMP2 target induction, and attenuates fibrogenic signaling in valve interstitial cells. In brief, cells were maintained in Dulbecco's Modified Eagle's Medium (DMEM) with 20% fetal bovine serum (FBS) and expanded to confluence in 6 well plates in a standard 5% CO2 incubator at 37° C. Cells were then treated with BMP2 (100 ng/mL), TGFβ1 (10 ng/mL), or vehicle (phosphate buffered saline) in the absence or presence of Ataciguat (1 μmol) for 18 hours. Cells were lysed using standard protein lysis buffer containing protease and phosphatase inhibitors, and Western blotting was performed to evaluate changes in protein levels of BMP, TGFβ, and sGC signaling.

For `O=C(Nc1ccc(S(=O)(=O)N2CCOCC2)cc1)c1cc(Cl)ccc1NS(=O)(=O)c1ccc(Cl)s1` [Ataciguat, 5-Chloro-2-[[(5-chloro-2-thienyl)sulfonyl]amino]-N-[4-(4-morpholinylsulfonyl)phenyl]benzamide], the “sGC signaling (indicated by pVASP239 levels)” value ([1]; FIG. 2A) was “activated sGC signaling”, the “osteogenic signaling (BMP2-induced Sp7 expression)” value ([1]; FIG. 2B) was “profoundly suppressed osteogenic signaling” and the “sGC signaling (p-VASP239 levels)” value ([2]; BMP2 100 ng/mL, TGFβ1 10 ng/mL or control, FIG. 4, replicated in human (HAV-001, HAV-002, HAV-003) and mouse (MAV1, MAV2, MAV4) cell lines) was “effectively activated sGC signaling”. For the same compound, the “BMP2 signaling (p-Smad1/5/8 levels)” value ([2]; BMP2 100 ng/mL, TGFβ1 10 ng/mL or control, FIG. 5, replicated in human and mouse cell lines) was “attenuated canonical BMP2 signaling”, the “BMP2 target induction (Sp7 levels)” value ([2]; BMP2, TGFβ1 or control, FIG. 6, replicated in human and mouse cell lines) was “attenuated BMP target induction; also recorded: attenuated BMP2 target induction” and the “fibrogenic signaling (p-Smad2 levels)” value ([2]; BMP2, TGFβ1 or control, FIG. 7, replicated in human and mouse cell lines) was “partially attenuated fibrogenic signaling”.
